Results on 29 compounds are retold here after patent US20180338980A1, “AROMATIC SULFONAMIDE DERIVATIVES” (BAYER PHARMA AKTIENGESELLSCHAFT, priority 2015, published 2018).

The test has as its target T1, P2X4 (Homo sapiens, UniProt Q99571).
T1 sequence (Q99571 1-388): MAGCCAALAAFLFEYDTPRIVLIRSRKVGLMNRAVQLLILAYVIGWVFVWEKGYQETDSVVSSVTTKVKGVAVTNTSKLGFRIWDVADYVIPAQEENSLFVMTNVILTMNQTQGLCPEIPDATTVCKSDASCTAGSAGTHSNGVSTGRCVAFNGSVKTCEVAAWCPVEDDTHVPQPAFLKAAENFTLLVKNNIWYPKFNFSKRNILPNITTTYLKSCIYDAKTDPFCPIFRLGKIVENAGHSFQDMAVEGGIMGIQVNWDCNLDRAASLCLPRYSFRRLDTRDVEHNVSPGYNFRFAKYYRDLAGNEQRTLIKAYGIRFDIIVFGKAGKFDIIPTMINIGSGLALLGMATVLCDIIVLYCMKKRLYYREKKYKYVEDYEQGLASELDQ
Put plainly: Assay B: human P2X4 receptor cell line, mitochondrial photina luminescence (agonist Bz-ATP at EC50). The format is cell-based. Details: host or cells: HEK 293 (recombinant, constitutively expressing; with mitochondrial photina in Assay B). The conditions noted are these: HEK human P2X4 cell line, photina luminescence, agonist Bz-ATP at EC50, average; for Emax: read-out: human P2X4 Assay B avg Efficacy. The procedure: The identification of agonists and antagonists of the P2X4 receptor from humans and […] also the quantification of the activity of the compounds of the invention was performed by use of recombinant cell lines. […] The test cell lines constitutively express the mouse or human P2X4 receptors. Stimulation of the receptors with an agonist leads to a conformational change of P2X4 and influx of extracellular calcium ions through the ion channel. The cytoplasmatic calcium transient is detected via the calcium sensitive dye Fluo8 for the mouse P2×4 cell line or in case of the human P2×4 cell line a stably expressed calcium-sensitive photoprotein, mitochondrial photina, which, after reconstitution with the cofactor coelenterazine, emits light in dependence of calcium binding [Bovolenta S, Foti M, Lohmer S, Corazza S., J Biomol Screen. […] The strength of Fluo8 fluorescence signal or photina luminescence signal corresponds to the level of receptor activation. An inhibitor would decrease the signal depending on its potency and concentration.
The resulting light signal is measured immediately in the luminometer.

The IC50 is the concentration at which inhibition is half-maximal. With `NS(=O)(=O)c1cc(NC(=O)Cc2ccc(C(F)(F)F)cc2)ccc1Oc1ccccc1OC(F)(F)F` [Example 072, N-{3-Sulfamoyl-4-[2-(trifluoromethoxy)phenoxy]phenyl}-2-[4-(trifluoromethyl)phenyl]acetamide], the IC50 is 2960 nM and the Emax is 63%.
On to `NS(=O)(=O)c1cc(NC(=O)Cc2ccc(C(F)(F)F)cc2)ccc1Oc1ccccc1Cl` [Example 073, N-[4-(2-Chlorophenoxy)-3-sulfamoylphenyl]-2-[4-(trifluoromethyl)phenyl]acetamide], for which the concentration for half-maximal inhibition (IC50) is 3370 nM and the Emax is 65%.
Taken in the same sequence, the figures for `NS(=O)(=O)c1cc(NC(=O)Cc2ccccc2)ccc1Oc1ccccc1OC(F)(F)F` [Example 074, 2-Phenyl-N-{3-sulfamoyl-4-[2-(trifluoromethoxy)phenoxy]phenyl}acetamide] were 609 nM and 52%.
On to `NS(=O)(=O)c1cc(NC(=O)Cc2ccccc2Cl)ccc1Oc1ccc[nH]c1=O` [Example 075, 2-(2-Chlorophenyl)-N-{4-[(2-oxo-1,2-dihydropyridin-3-yl)oxy]-3-sulfamoylphenyl}acetamide], for which the half-inhibitory concentration (IC50) was found to be 2230 nM and the Emax turned out to be 77%.
Consider `NS(=O)(=O)c1cc(NC(=O)Cc2ccccc2)ccc1Oc1ccccc1Cl` [Example 076, N-[4-(2-Chlorophenoxy)-3-sulfamoylphenyl]-2-phenylacetamide], for which the Emax was 74%.
Turning to `NS(=O)(=O)c1cc(NC(=O)Cc2ccccc2)ccc1Oc1cncc(Cl)c1` [Example 078, N-{4-[(5-Chloropyridin-3-yl)oxy]-3-sulfamoylphenyl}-2-phenylacetamide], the IC50 was 706 nM and the Emax stood at 86%.
For `NS(=O)(=O)c1cc(NC(=O)Cc2cccc(F)c2)ccc1Oc1cccc(Cl)c1` [Example 084, N-[4-(3-Chlorophenoxy)-3-sulfamoylphenyl]-2-(3-fluorophenyl)acetamide], the IC50 was 213 nM and the Emax was found to be 57%.
Take `CC(C)c1ccccc1CC(=O)Nc1ccc(Oc2cccc(Cl)c2)c(S(N)(=O)=O)c1` [Example 087, N-[4-(3-Chlorophenoxy)-3-sulfamoylphenyl]-2-(2-isopropylphenyl)acetamide]: the 50% inhibitory concentration (IC50) stood at 196 nM and the Emax came out at 76%.
As to `CCOc1ccccc1CC(=O)Nc1ccc(Oc2cccc(Cl)c2)c(S(N)(=O)=O)c1` [Example 088, N-[4-(3-Chlorophenoxy)-3-sulfamoylphenyl]-2-(2-ethoxyphenyl)acetamide], the IC50 amounted to 190 nM and the Emax amounted to 75%.
Taken in the same sequence, the figures for `NS(=O)(=O)c1cc(NC(=O)Cc2ccccc2SC(F)(F)F)ccc1Oc1cccc(Cl)c1` [Example 090, N-[4-(3-Chlorophenoxy)-3-sulfamoylphenyl]-2-{2-[(trifluoromethyl)sulfanyl]phenyl}acetamide] were 442 nM and 71%.
For the compound `Cc1ccncc1CC(=O)Nc1ccc(Oc2cccc(Cl)c2)c(S(N)(=O)=O)c1` [Example 092, N-[4-(3-Chlorophenoxy)-3-sulfamoylphenyl]-2-(4-methylpyridin-3-yl)acetamide], the IC50 was 3440 nM and the Emax turned out to be 57%.
In the case of `NS(=O)(=O)c1cc(NC(=O)Cc2cccnc2Cl)ccc1Oc1cccc(Cl)c1` [Example 093, N-[4-(3-Chlorophenoxy)-3-sulfamoylphenyl]-2-(2-chloropyridin-3-yl)acetamide], the IC50 came out at 216 nM and the Emax was 68%.
For the compound `NS(=O)(=O)c1cc(NC(=O)C(F)(F)c2ccccc2Cl)ccc1Oc1cccc(Cl)c1` [Example 094, N-[4-(3-Chlorophenoxy)-3-sulfamoylphenyl]-2-(2-chlorophenyl)-2,2-difluoroacetamide], the IC50 was found to be 200 nM and the Emax amounted to 74%.
With `NS(=O)(=O)c1cc(NC(=O)Cc2ccccc2OC(F)(F)F)ccc1Oc1cccc(Cl)c1` [Example 105, N-[4-(3-Chlorophenoxy)-3-sulfamoylphenyl]-2-[2-(trifluoromethoxy)phenyl]acetamide], the IC50 stood at 203 nM and the Emax stood at 75%.
Taken in the same sequence, the figures for `NS(=O)(=O)c1cc(NC(=O)C(F)(F)c2ccccc2)ccc1Oc1cccc(Cl)c1` [Example 106, N-[4-(3-Chlorophenoxy)-3-sulfamoylphenyl]-2,2-difluoro-2-phenylacetamide] were 524 nM and 42%.
With `NS(=O)(=O)c1cc(NC(=O)Cc2c(Cl)cccc2C(F)(F)F)ccc1Oc1cccc(Cl)c1` [Example 108, N-[4-(3-Chlorophenoxy)-3-sulfamoylphenyl]-2-[2-chloro-6-(trifluoromethyl)phenyl]acetamide], the IC50 came to 175 nM and the Emax came to 60%.
For `NS(=O)(=O)c1cc(NC(=O)Cc2cc(C(F)(F)F)ccc2Cl)ccc1Oc1cccc(Cl)c1` [Example 109, N-[4-(3-Chlorophenoxy)-3-sulfamoylphenyl]-2-[2-chloro-5-(trifluoromethyl)phenyl]acetamide] the same measures were 825 nM and 56%.
For the compound `NS(=O)(=O)c1cc(NC(=O)Cc2cnc(Cl)cc2Cl)ccc1Oc1cccc(Cl)c1` [Example 111, N-[4-(3-Chlorophenoxy)-3-sulfamoylphenyl]-2-(4,6-dichloropyridin-3-yl)acetamide], the IC50 was found to be 273 nM and the Emax came out at 48%.
Take `NS(=O)(=O)c1cc(NC(=O)Cc2ncccc2Cl)ccc1Oc1cccc(Cl)c1` [Example 112, N-[4-(3-Chlorophenoxy)-3-sulfamoylphenyl]-2-(3-chloropyridin-2-yl)acetamide]: the 50% inhibitory concentration (IC50) was 289 nM and the Emax was 60%.
For `NS(=O)(=O)c1cc(NC(=O)Cc2cc(Cl)ccc2Cl)ccc1Oc1cccc(Cl)c1` [Example 114, N-[4-(3-Chlorophenoxy)-3-sulfamoylphenyl]-2-(2,5-dichlorophenyl)acetamide] the same measures were 305 nM and 64%.
Turning to `NS(=O)(=O)c1cc(NC(=O)Cc2c(Cl)cc(C(F)(F)F)c(F)c2F)ccc1Oc1cccc(Cl)c1` [Example 115, 2-[6-Chloro-2,3-difluoro-4-(trifluoromethyl)phenyl]-N-[4-(3-chlorophenoxy)-3-sulfamoylphenyl]acetamide], the IC50 was determined as 1420 nM and the Emax worked out at 54%.
For `Cc1cc(CC(=O)Nc2ccc(Oc3cccc(Cl)c3)c(S(N)(=O)=O)c2)c(Cl)cc1Br` [Example 118, 2-(4-Bromo-2-chloro-5-methylphenyl)-N-[4-(3-chlorophenoxy)-3-sulfamoylphenyl]acetamide], the IC50 was 1890 nM and the Emax was determined as 61%.
For `NS(=O)(=O)c1cc(NC(=O)Cc2ccncc2Cl)ccc1Oc1cccc(Cl)c1` [Example 119, N-[4-(3-Chlorophenoxy)-3-sulfamoylphenyl]-2-(3-chloropyridin-4-yl)acetamide], the 50% inhibitory concentration (IC50) worked out at 164 nM and the Emax turned out to be 64%.
On to `Cc1ccc(Cl)c(CC(=O)Nc2ccc(Oc3cccc(Cl)c3)c(S(N)(=O)=O)c2)c1F` [Example 121, 2-(6-Chloro-2-fluoro-3-methylphenyl)-N-[4-(3-chlorophenoxy)-3-sulfamoylphenyl]acetamide], for which the IC50 was found to be 218 nM and the Emax turned out to be 62%.
Take `NS(=O)(=O)c1cc(NC(=O)Cc2cc(F)c(F)cc2Cl)ccc1Oc1cccc(Cl)c1` [Example 123, 2-(2-Chloro-4,5-difluorophenyl)-N-[4-(3-chlorophenoxy)-3-sulfamoylphenyl]acetamide]: the half-inhibitory concentration (IC50) is 369 nM and the Emax came to 55%.
For `NS(=O)(=O)c1cc(NC(=O)Cc2c(Cl)ccc(Cl)c2Cl)ccc1Oc1cccc(Cl)c1` [Example 125, N-[4-(3-Chlorophenoxy)-3-sulfamoylphenyl]-2-(2,3,6-trichlorophenyl)acetamide], the IC50 came out at 506 nM and the Emax amounted to 97%.
As for `Cc1cc(Cl)c(CC(=O)Nc2ccc(Oc3cccc(Cl)c3)c(S(N)(=O)=O)c2)c(Cl)c1` [Example 126, N-[4-(3-Chlorophenoxy)-3-sulfamoylphenyl]-2-(2,6-dichloro-4-methylphenyl)acetamide], the concentration for half-maximal inhibition (IC50) came to 467 nM and the Emax came out at 81%.
On to `NS(=O)(=O)c1cc(NC(=O)Cc2c(C(F)(F)F)ccc(Cl)c2Cl)ccc1Oc1cccc(Cl)c1` [Example 127, N-[4-(3-chlorophenoxy)-3-sulfamoylphenyl]-2-[2,3-dichloro-6-(trifluoromethyl)phenyl]acetamide], for which the concentration for half-maximal inhibition (IC50) was 1050 nM and the Emax came out at 66%.
For `N#Cc1ccccc1COc1ccc(NC(=O)Cc2ccccc2Cl)cc1S(N)(=O)=O` [Example 145, 2-(2-Chlorophenyl)-N-{4-[(2-cyanobenzyl)oxy]-3-sulfamoylphenyl}acetamide] the same measures were 194 nM and 72%.
